Measured values from publication PMC7071109, “Validation of an HPLC Method for the Simultaneous Quantification of Metabolic Reaction Products Catalysed by CYP2E1 Enzyme Activity: Inhibitory Effect of Cytochrome P450 Enzyme CYP2E1 by Salicylic Acid in Rat Liver Microsomes” (Molecules, 2020).

Target: CYP2E1 (Rattus norvegicus, UniProt P05182)
Test: inhibition of chlorzoxazone 6-hydroxylation in rat liver microsomes, HPLC
Type: biochemical

Chain of CYP2E1 (P05182 2-493): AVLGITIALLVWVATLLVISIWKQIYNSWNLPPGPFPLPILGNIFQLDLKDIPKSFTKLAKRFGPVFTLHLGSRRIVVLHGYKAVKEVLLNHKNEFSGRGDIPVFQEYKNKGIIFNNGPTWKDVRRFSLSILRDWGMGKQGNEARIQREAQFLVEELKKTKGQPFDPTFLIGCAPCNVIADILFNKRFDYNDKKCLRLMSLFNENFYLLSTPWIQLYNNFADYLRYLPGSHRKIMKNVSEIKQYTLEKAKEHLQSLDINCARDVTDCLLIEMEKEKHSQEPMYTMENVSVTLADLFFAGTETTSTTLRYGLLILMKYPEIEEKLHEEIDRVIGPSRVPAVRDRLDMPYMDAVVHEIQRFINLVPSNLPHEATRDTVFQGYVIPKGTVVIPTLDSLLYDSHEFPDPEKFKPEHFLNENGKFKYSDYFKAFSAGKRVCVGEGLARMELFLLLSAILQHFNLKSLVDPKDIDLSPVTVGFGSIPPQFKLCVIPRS

Structure (SMILES): O=C(O)c1ccccc1O [salicylic acid]
- Ki: 83.6 ± 2.73 µM
